Article PMC3618674 (Brain research, 2012)
Like-named read-outs stand apart in the source and are kept apart here. Blank lines part the entries; values can stand above or below the compound they belong to.

What was measured:
L-DOPA methylation [1] = assay: Animal experiment III: L-DOPA methylation in dopamine-depleted; format: in vivo, rat
[2] = target: T1, human liver catechol-O-methyltransferase (COMT) (Homo sapiens, UniProt P21964); assay: in vitro O-methylation of L-DOPA catalyzed by human liver cytosolic COMT; format: biochemical
T1 sequence (P21964 1-221 isoform P21964-2): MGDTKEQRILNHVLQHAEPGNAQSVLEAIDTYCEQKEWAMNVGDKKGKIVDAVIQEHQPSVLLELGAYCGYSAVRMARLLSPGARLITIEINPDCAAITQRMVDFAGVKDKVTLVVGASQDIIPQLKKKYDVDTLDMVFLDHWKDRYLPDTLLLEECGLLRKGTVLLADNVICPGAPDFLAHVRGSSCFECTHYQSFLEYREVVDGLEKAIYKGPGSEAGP

in vivo = conditions: rat, ip, 400 mg/kg
L-DOPA methylation [3] = conditions: rats; for effect on plasma 3-OMD levels: 400 mg/kg i.p. 2 h before L-DOPA/carbidopa 20/5 mg/kg; for effect on striatal 3-OMD levels / effect on striatal dopamine levels: 400 mg/kg i.p., striatum at 6 h after L-DOPA/carbidopa 20/5 mg/kg
[4] = tested on: HT22 mouse hippocampal neuronal cells; assay: Glutamate-induced intracellular ROS accumulation; format: cell-based; conditions: 5 mM glutamate
[5] = tested on: 6-hydroxydopamine-induced neuronal damage; assay: 6-hydroxydopamine-induced neuronal damage model; conditions: data not shown
L-DOPA methylation [6] = format: in vivo, rat; conditions: rats
[7] = tested on: HT22 mouse hippocampal neuronal cells; assay: Glutamate-induced oxidative cell death, MTT cell viability; format: cell-based; conditions: 5 mM glutamate, 24 h, co-treatment
[8] = tested on: kainic acid-induced hippocampal neurodegeneration; assay: Animal experiment IV: kainic acid-induced rat hippocampal injury; format: in vivo; conditions: rats
NF-κB = assay: NF-κB-Luc reporter transcriptional activity in glutamate-treated HT22 cells; format: cell-based, mouse; conditions: HT22 cells transfected with NF-κB-Luc; 5 mM glutamate, 40 μM (+)-catechin, 8 h
[9] = tested on: 6-hydroxydopamine-induced neurotoxicity; conditions: ref Leaver et al., 2009; cited from earlier work
[10] = rats, reserpine 5 mg/kg i.p. 18-20 h before
[11] = reserpinized rats, co-treatment with L-DOPA/carbidopa 20/20 mg/kg

Structure (SMILES): COC(=O)[C@H]1[C@H]2C[C@@H]3c4[nH]c5cc(OC)ccc5c4CCN3C[C@H]2C[C@@H](OC(=O)c2cc(OC)c(OC)c(OC)c2)[C@@H]1OC [reserpine, reference compound]
decrease of striatal dopamine levels compared to normal control animals (L-DOPA methylation [1]; [10]): over 80%
striatal dopamine levels relative to non-reserpinized control rats (L-DOPA methylation [1]; [10]): approximately 20%

IC50 [2]: 10.7 ± 6.7 µM
concentration at 30 min (in vivo): 88.6 ± 39.2 µM
Structure (SMILES): Oc1cc(O)c2c(c1)O[C@H](c1ccc(O)c(O)c1)[C@H](O)C2 [(−)-epicatechin]
effect on plasma 3-OMD levels (L-DOPA methylation [3]): did not have a similar effect
effect on striatal 3-OMD levels (L-DOPA methylation [3]): no significant change
effect on striatal dopamine levels (L-DOPA methylation [3]): no significant change

Structure (SMILES): Oc1cc(O)c2c(c1)O[C@H](c1ccc(O)c(O)c1)[C@@H](O)C2 [(+)-catechin]
effect on glutamate-induced accumulation of intracellular ROS [4]: reduced
effect on striatal 3-OMD levels (L-DOPA methylation [1]; [11]): markedly reduced
effect on striatal dopamine levels (L-DOPA methylation [1]; [11]): restored to levels comparable to those in normal rats
protective effect in 6-hydroxydopamine-induced neuronal damage model [5]: did not show any appreciable protective effect
time required to reach maximal L-DOPA plasma concentration (L-DOPA methylation [6]; (+)-catechin 400 mg/kg 2 h before L-DOPA/carbidopa 20/20 mg/kg, vs control): modestly shifted to the right
effect on striatal 3-OMD levels (L-DOPA methylation [6]; L-DOPA/carbidopa 20/20 mg/kg): markedly reduced
effect on striatal dopamine levels (L-DOPA methylation [6]; L-DOPA/carbidopa 20/20 mg/kg): not significantly affected
effect on glutamate-induced cell death (cell viability) [7]: abrogated cell death in a concentration-dependent manner
kainic acid-induced increase in GFAP expression in astrocytes ([8]; (+)-catechin 400 mg/kg 30 min before i.c.v. kainic acid, 24 h, CA3): reduced
effect on kainic acid-induced seizure behavior ([8]; (+)-catechin 30 min before i.c.v. kainic acid): no appreciable behavioral differences
effect on transcriptional activity of NF-κB (NF-κB): significantly attenuated
effect on plasma 3-OMD levels (L-DOPA methylation [3]): significantly reduced
effect on striatal 3-OMD levels (L-DOPA methylation [3]): significantly reduced
effect on striatal dopamine levels (L-DOPA methylation [3]): only slightly changed

Structure (SMILES): O=C(O[C@@H]1Cc2c(O)cc(O)cc2O[C@@H]1c1cc(O)c(O)c(O)c1)c1cc(O)c(O)c(O)c1 [EGCG, (−)-epigallocatechin-3-gallate]
effect in 6-hydroxydopamine-induced neurotoxicity model [9]: ineffective

IC50 [2]: 1.9 ± 0.4 µM
concentration at 30 min (in vivo): 12.6 ± 0.1 µM
Structure (SMILES): O=c1c(O)c(-c2ccc(O)c(O)c2)oc2cc(O)cc(O)c12 [quercetin]
effect on plasma 3-OMD levels (L-DOPA methylation [3]): did not have a similar effect
effect on striatal 3-OMD levels (L-DOPA methylation [3]): no significant change
effect on striatal dopamine levels (L-DOPA methylation [3]): no significant change
